The record followed here is ChEMBL document CHEMBL3217566, “Unprecedented inhibition of resistant penicillin binding proteins by bis-2-oxoazetidinyl macrocycles” (Medchemcomm, 2012).

In one test the test system is Enterococcus faecium. Put plainly: Inhibition of Enterococcus faecium D63r PBP5 assessed as assessed as residual activity at 1 mM after 4 hrs by fluorescence spectroscopy in presence of fluorescein-labeled ampicillin.
For a further test, the system named is Staphylococcus aureus. The experiment in a line: Inhibition of methicillin-resistant Staphylococcus aureus ATCC 43300 PBP5 assessed as residual activity at 1 mM after 4 hrs by fluorescence spectroscopy in presence of fluorescein-labeled ampicillin.
For a further test, the system named is Actinomadura sp. R39. Put plainly: Inhibition of Actinomadura R39 D,D-peptidase assessed as inhibition of hydrolysis of thiolester substrate S2d measured as residual activity at 100 uM after 1 hr by Ellman's method.

Molecules are shown by their SMILES. Bounds are passed on as bounds.

Regarding `C=CCCCC(=O)N1C[C@H](NC(=O)CCC=C)C1=O`, the Activity in the test with Enterococcus faecium worked out at 39%; in the test on Staphylococcus aureus it was 100%; with Actinomadura sp. R39, 99%.
With `CCCCCCC(=O)N[C@H]1CN(C(=O)CC/C=C/CCC(=O)N2C[C@H](NC(=O)CCCCCC)C2=O)C1=O`, the results for the Activity in the test with Enterococcus faecium, in the test with Staphylococcus aureus and in the test with Actinomadura sp. R39 were 0%, 100% and 100%, respectively.
Regarding `C=CCCCC(=O)N[C@H]1CN(C(=O)CCC=C)C1=O`, the values for the Activity with Enterococcus faecium, in the test with Staphylococcus aureus and in the test on Actinomadura sp. R39 were 14%, 93% and 98%, respectively.
Turning to `C=CCCC(=O)N[C@H]1CN(C(=O)CCC=C)C1=O`, the results for the Activity in the test with Enterococcus faecium, in the test with Staphylococcus aureus and in the test on Actinomadura sp. R39 were > 100%, 79% and 72%, respectively.
For `CCCCC(=O)N1C[C@H](NC(=O)CCCCCCCCCCC(=O)N[C@H]2CN(C(=O)CCCC)C2=O)C1=O` the same measures were 3%, 90% and 89%.
For `C=CCCCCC(=O)N1C[C@H](NC(=O)CCC=C)C1=O` the same measures were 50%, 77% and 72%.
For `CCCCCCC(=O)N[C@H]1CN(C(=O)CCCCCCC(=O)N2C[C@H](NC(=O)CCCCCC)C2=O)C1=O` the same measures were 10%, 99% and 74%.
As to `C=CCCCCC(=O)N[C@H]1CN(C(=O)CCCC=C)C1=O`, the results for the Activity in the test on Enterococcus faecium, in the test on Staphylococcus aureus and with Actinomadura sp. R39 were 21%, 85% and 74%, respectively.
In the same order, the values of `C=CCCCC(=O)N[C@H]1CN(C(=O)CCCC=C)C1=O` are 17%, 100% and 90%.
In the case of `C=CCCCCC(=O)N[C@H]1CN(C(=O)CCCC)C1=O`, the Activity in the test on Enterococcus faecium came out at 5%; with Staphylococcus aureus, 100%; in the test with Actinomadura sp. R39, 97%.
In the same order, the values of `C=CCCCCC(=O)N[C@H]1CN(C(=O)CCC=C)C1=O` are 14%, 89% and 91%.
As to `C=CCCCCC(=O)N1C[C@H](NC(=O)CCCC=C)C1=O`, the Activity in the test with Enterococcus faecium is 15%; in the test on Staphylococcus aureus it was 82%; in the test with Actinomadura sp. R39, 86%.
In the same order, the values of `C=CCCC(=O)N1C[C@H](NC(=O)CCCCCC)C1=O` are 6%, 100% and 92%.
For `C=CCCCCC(=O)N[C@H]1CN(C(=O)CCCCC=C)C1=O` the same measures were 23%, 81% and 80%.
Take `CCCCC(=O)N1C[C@H](NC(=O)CCCC/C=C/CCCCC(=O)N[C@H]2CN(C(=O)CCCC)C2=O)C1=O`: the Activity was 5% with Enterococcus faecium, 89% in the test on Staphylococcus aureus and 90% in the test on Actinomadura sp. R39.
